Measurements published in patent publication US20100029643A1 (ASTRAZENECA AB, priority 2006, published 2010).

These compounds were tested against T1, Edg-1/S1P1 receptor (Homo sapiens, UniProt P21453) (assay: In vitro cell based receptor activation assay - Transfluor assay (assay I or II; beta-arrestin GFP relocalization after S1P stimulation)). Conditions: at 3.50 μM (titrated from top concentration 10 μM).
T1 construct: expressed in transfected cells; host or cells: human osteogenic sarcoma U2OS cells: Edg-1 Transfluor U2OS WT Clone #37 (assay I), Edg-1 Transfluor U2OS Clone #3 (assay II)
T1 sequence (P21453 whole entry): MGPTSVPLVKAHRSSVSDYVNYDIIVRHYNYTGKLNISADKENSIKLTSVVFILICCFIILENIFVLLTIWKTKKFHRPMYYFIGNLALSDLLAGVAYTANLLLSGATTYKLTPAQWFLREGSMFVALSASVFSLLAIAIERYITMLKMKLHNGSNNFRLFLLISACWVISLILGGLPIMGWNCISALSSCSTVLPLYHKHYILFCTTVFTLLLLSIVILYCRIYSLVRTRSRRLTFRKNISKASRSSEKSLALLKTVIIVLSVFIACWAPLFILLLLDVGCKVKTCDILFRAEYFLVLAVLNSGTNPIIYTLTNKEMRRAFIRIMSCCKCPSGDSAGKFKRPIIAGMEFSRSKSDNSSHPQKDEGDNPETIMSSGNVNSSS
Text: The following assays can be used to measure the effects of the compounds of the present invention as S1P1/Edg1 inhibitors.
I. In Vitro Cell Based Receptor Activation Assay-Transfluor Assay
(§1) This cell-based assay was designed to assess the ability of small molecule antagonists to inhibit activation of the GPCR S1P1 in the presence of its cognate ligand S1P. The assay used technology initially developed by Norak Biosciences (Xsira Pharmaceutical) and presently owned by Molecular Devices. A human osteogenic sarcoma (U2OS) cell line overexpressing the Edg-1/S1P1) receptor as well as a beta-arrestin/green fluorescent protein (GFP) construct hereafter termed Edg-1 Transfluor U2OS WT Clone #37 was employed.
Using a high content screening approach (Cellomics Arrayscan), receptor activity was measured by assessment of the relocalization of beta-arrestin GFP in response to stimulation of Edg-1 by SIP. Specifically, Edg-1 Transfluor U2OS WT Clone #37 cells were plated at a density of 6250 cells in 40 μL medium per well in 384 well plastic bottomed microtiter plates (BD Falcon) and incubated overnight at 37° C./5% CO2. Prior to screening, compounds were dissolved in 100% dimethyl sulfoxide (DMSO) to a final stock concentration of 10 mM. Compounds were then serially diluted at 30× final concentration in Edg-1 Transfluor cell growth medium containing […] using the Tecan Genesis instrument. These 30× plates were then diluted to 6× final concentration with Edg-1 Transfluor growth medium just prior to dosing. Cells were then dosed with 10 μL per well of 6× compound dilutions or 6% DMSO and pre-incubated for 15 minutes at room temperature. Cell plates were dosed with 10 μL per well 6× S1P Edg-1 Transfluor growth medium, then incubated for 45 minutes at 37° C./5% CO2. Final concentration in the well of DMSO was 1%, compound was IX (3-fold, 9 point IC50 dilutions starting at 100 μM final concentration), and either 375 nM or […] SIP ligand. Cell plates were then fixed by adding 50 μL per well of 5% formaldehyde in 1× Dulbecco's phosphate buffered saline (DPBS) directly and incubating for 30 minutes at room temperature in darkness. Fixative was removed and replaced with 50 μL per well of 1×DPBS, after which cells were stained with 10 μg/mL final concentration of Hoechst 33342 (Molecular Probes) for 15 minutes at room temperature in darkness. Stain was then removed from the plates and replaced with 50 μL per well of 1×DPBS using the BioTek ExL405 plate washer. Plates were then sealed and analysed on the Cellomics Arrayscan using the GPCR signalling algorithm. EC50 values were then calculated using IDBS ActivityBase software.
II. In Vitro Cell Based Receptor Activation Assay-Transfluor Assay
as §1, with “Devices (MDS Analytical Technologies).” for “Devices.”, “U2OS” for “U2OS WT”, “#3” for “#37”
Using a high content screening approach (Molecular Devices Image Express), receptor activity was measured by assessment of the relocalization of beta-aiTestin GFP in response to stimulation of Edg-1 by S1P. Specifically, Edg-1 Transfluor U2OS Clone #3 cells were plated at a density of 6250 cells in 44 μL medium per well in 384 well plastic bottomed microtiter plates (BD Falcon) and incubated overnight at 37° C./5% CO2. Prior to screening, compounds were dissolved in 100% dimethyl sulfoxide (DMSO) to a final stock concentration of 10 mM. Compounds were then serially diluted at 10× final concentration in Edg-1 Transfluor cell growth medium containing 6% DMSO using the BioMek instrument. […]
For `CCn1c([C@@H](C)NS(=O)(=O)c2ccc(Cl)cc2)nc2cc(C)c(C)cc21` [Example 24, 4-Chloro-N-[(1R)-1-(1-ethyl-5,6-dimethyl-1H-benzimidazol-2-yl)ethyl]benzenesulfonamide], the inhibition at 3.5 µM was 73%.
Compound `CCn1c([C@@H](C)NS(=O)(=O)c2ccc(F)cc2)nc2ccc(C(F)(F)F)cc21` [Example 25, N-{(1R)-1-[1-Ethyl-6-(trifluoromethyl)-1H-benzimidazol-2-yl]ethyl}-4-fluorobenzenesulfonamide] has an inhibition at 3.5 µM of 90%.
`CCn1c([C@@H](C)NS(=O)(=O)c2ccc(C#N)cc2)nc2ccc(C(F)(F)F)cc21` [Example 26, 4-Cyano-N-{(1R)-1-[1-ethyl-6-(trifluoromethyl)-1H-benzimidazol-2-yl]ethyl}benzenesulfonamide] was tested, and the inhibition at 3.5 µM was 87.4%.
`CCn1c([C@@H](C)NS(=O)(=O)c2ccc(F)c(C#N)c2)nc2ccc(C(F)(F)F)cc21` [Example 27, 3-Cyano-N-{(1R)-1-[1-ethyl-6-(trifluoromethyl)-1H-benzimidazol-2-yl]ethyl}-4-fluorobenzenesulfonamide] showed an inhibition at 3.5 µM of 85.7%.
`CCn1c([C@@H](C)NS(=O)(=O)c2ccc(F)c(C)c2)nc2ccc(C(F)(F)F)cc21` [Example 30, N-{(1R)-1-[1-Ethyl-6-(trifluoromethyl)-1H-benzimidazol-2-yl]ethyl}-4-fluoro-3-methylbenzenesulfonamide] gave an inhibition at 3.5 µM of 94.6%.
Compound `CCn1c([C@@H](C)NS(=O)(=O)c2cc(C)oc2C)nc2ccc(C(F)(F)F)cc21` [Example 33, N-{(1R)-1-[1-Ethyl-6-(trifluoromethyl)-1H-benzimidazol-2-yl]ethyl}-2,5-dimethylfuran-3-sulfonamide] has an inhibition at 3.5 µM of 92%.
Compound `CCn1c([C@@H](C)NS(=O)(=O)c2ccc(F)c(F)c2F)nc2ccc(C(F)(F)F)cc21` [Example 34] has an inhibition at 3.5 µM of 95.3%.
`CCn1c([C@@H](C)NS(=O)(=O)c2cccs2)nc2ccc(C(F)(F)F)cc21` [Example 39, N-{(1R)-1-[1-Ethyl-6-(trifluoromethyl)-1H-benzimidazol-2-yl]ethyl}thiophene-2-sulfonamide] gave an inhibition at 3.5 µM of 92.5%.
`CCn1c([C@@H](C)NS(=O)(=O)c2ccc(C(=O)OC)n2C)nc2ccc(C(F)(F)F)cc21` [Example 40, (R)-methyl 5-(N-(1-(1-ethyl-6-(trifluoromethyl)-1H-benzo[d]imidazol-2-yl)ethyl)sulfamoyl)-1-methyl-1H-pyrrole-2-carboxylate] showed an inhibition at 3.5 µM of 97.5%.
In the case of `CCn1c([C@@H](C)NS(=O)(=O)c2ccc3c(c2)OCCN3C)nc2ccc(C(F)(F)F)cc21` [Example 43, N-{(1R)-1-[1-Ethyl-6-(trifluoromethyl)-1H-benzimidazol-2-yl]ethyl}-4-methyl-3,4-dihydro-2H-1,4-benzoxamide-7-sulfonamide], the inhibition at 3.5 µM is reported as 93.3%.
`CCn1c([C@@H](C)NS(=O)(=O)c2ccc3c(c2)OCCO3)nc2ccc(C(F)(F)F)cc21` [Example 44, N-{(1R)-1-[1-Ethyl-6-(trifluoromethyl)-1H-benzimidazol-2-yl]ethyl}-2,3-dihydro-1,4-benzodioxine-6-sulfonamide] gave an inhibition at 3.5 µM of 93.9%.
In the case of `CCn1c([C@@H](C)NS(=O)(=O)c2ccc3c(c2)OCO3)nc2ccc(C(F)(F)F)cc21` [Example 45, N-{(1R)-1-[1-Ethyl-6-(trifluoromethyl)-1H-benzimidazol-2-yl]ethyl}-1,3-benzodioxole-5-sulfonamide], the inhibition at 3.5 µM is reported as 96%.
For `CCn1c([C@@H](C)NS(=O)(=O)c2cnc(Cl)c(Cl)c2)nc2ccc(C(F)(F)F)cc21` [Example 48, 5,6-dichloro-N-(1-(1-ethyl-6-(trifluoromethyl)-1H-benzo[d]imidazol-2-yl)ethyl)pyridine-3-sulfonamide], the inhibition at 3.5 µM was 95.4%.

Same assay, conditions: at 3.70 μM (titrated from top concentration 100 μM)
With `CC(NS(=O)(=O)c1ccc(Cl)cc1)c1nc2ccccc2n1CC(F)(F)F` (centres unmarked) [Example 23, 4-Chloro-N-{1-[1-(2,2,2-trifluoro-ethyl)-1H-benzimidazol-2-yl]-ethyl}-benzenesulfonamide] the inhibition at 3.7 µM was 88.1%.
Work on `CCn1c([C@@H](C)NS(=O)(=O)C2CCCC2)nc2ccc(C(F)(F)F)cc21` [Example 28, N-{(1R)-1-[1-Ethyl-6-(trifluoromethyl)-1H-benzimidazol-2-yl]ethyl} cyclopentanesulfonamide] yielded an inhibition at 3.7 µM of 66.1%.
`CCn1c([C@@H](C)NS(=O)(=O)c2ccc(NC(C)=O)c(C)c2)nc2ccc(C(F)(F)F)cc21` [Example 29, N-{4-[({(1R)-1-[1-Ethyl-6-(trifluoromethyl)-1H-benzimidazol-2-yl]ethyl}amino)sulfonyl]-2-methylphenyl}acetamide] was tested, and the inhibition at 3.7 µM was 21.8%.
Compound `CCn1ncc(S(=O)(=O)N[C@H](C)c2nc3ccc(C(F)(F)F)cc3n2CC)c1C` [Example 31, 1-Ethyl-N-{(1R)-1-[1-ethyl-6-(trifluoromethyl)-1H-benzimidazol-2-yl]ethyl}-5-mthyl-1H-pyrazole-4-sulfonamide] has an inhibition at 3.7 µM of 78.6%.
`CCn1c([C@@H](C)NS(=O)(=O)c2cnc(C)n2C)nc2ccc(C(F)(F)F)cc21` [Example 32, N-{(1R)-1-[1-Ethyl-6-(trifluoromethyl)-1H-benzimidazol-2-yl]ethyl}-1,2-dimethyl-1H-imidazole-5-sulfonamide] gave an inhibition at 3.7 µM of 66.5%.
`CCn1c([C@@H](C)NS(=O)(=O)c2cnc(NC(C)=O)s2)nc2ccc(C(F)(F)F)cc21` [Example 36, N-{5-[({(1R)-1-[1-Ethyl-6-(trifluoromethyl)-1H-benzimidazol-2-yl]ethyl}amino)sulfonyl]-1,3-thiazol-2-yl}acetamide] was tested, and the inhibition at 3.7 µM was 49%.
`CCn1c([C@@H](C)NS(=O)(=O)c2c(C)noc2C)nc2ccc(C(F)(F)F)cc21` [Example 37, N-{(1R)-1-[1-Ethyl-6-(trifluoromethyl)-1H-benzimidazol-2-yl]ethyl}-3,5-dimethylisoxazole-4-sulfonamide] was tested, and the inhibition at 3.7 µM was 58.3%.
For `CCn1c([C@@H](C)NS(=O)(=O)C2CC2)nc2ccc(C(F)(F)F)cc21` [Example 38, N-{(1R)-1-[1-Ethyl-6-(trifluoromethyl)-1H-benz-imidazol-2-yl]ethyl}cyclo-propanesulfonamide], the inhibition at 3.7 µM was 35.1%.
`CCn1c([C@@H](C)NS(=O)(=O)c2cn(C)nc2C)nc2ccc(C(F)(F)F)cc21` [Example 41, N-{(1R)-1-[1-Ethyl-6-(trifluoromethyl)-1H-benzimidazol-2-yl]ethyl}-1,3-dimethyl-1H-pyrazole-4-sulfonamide] gave an inhibition at 3.7 µM of 61%.
For `CCn1c([C@@H](C)NS(=O)(=O)c2cn(C)c(C)n2)nc2ccc(C(F)(F)F)cc21` [Example 42, N-{(1R)-1-[1-Ethyl-6-(trifluoromethyl)-1H-benzimidazol-2-yl]ethyl}-1,2-dimethyl-1H-imidazole-4-sulfonamide], the inhibition at 3.7 µM was 41.3%.
`CCn1c([C@@H](C)NS(=O)(=O)c2ccc3nsnc3c2)nc2ccc(C(F)(F)F)cc21` [Example 46, N-{(1R)-1-[1-Ethyl-6-(trifluoromethyl)-1H-benzimidazol-2-yl]ethyl}-2,1,3-benzothiadiazole-5-sulfonamide] gave an inhibition at 3.7 µM of 89.8%.
`CCn1c([C@@H](C)NS(=O)(=O)c2ccsc2)nc2ccc(C(F)(F)F)cc21` [Example 47, N-{(1R)-1-[1-Ethyl-6-(trifluoromethyl)-1H-benzimidazol-2-yl]ethyl}thiophene-3-sulfonamide] showed an inhibition at 3.7 µM of 89.6%.
Compound `CCn1c([C@@H](C)NS(=O)(=O)c2cnc(Cl)c(Br)c2)nc2ccc(C(F)(F)F)cc21` [Example 49, 5-Bromo-6-chloro-N-{(1R)-1-[1-ethyl-6-(trifluoromethyl)-1H-benzimidazol-2-yl]ethyl}pyridine-3-sulfonamide] has an inhibition at 3.7 µM of 92.1%.
